Source: publication PMC5472631 (2017)

Columns and labels:
[1] = system: Pu24T (c-myc G-quadruplex DNA) (DNA, G4) TGAGGGTGGTGAGGGTGGGGAAGG; experiment: ITC; conditions: 100 mM KCl, 10 mM potassium phosphate; pH 7.0, 25 °C; site 1 of 2
[2] = system: Pu24T (c-myc G-quadruplex DNA) (DNA, G4) TGAGGGTGGTGAGGGTGGGGAAGG; experiment: ligand fluorescence titration; conditions: 100 mM KCl, 10 mM potassium phosphate; pH 7.0, 25 °C; site 1 of 2
[3] = system: Pu24T (c-myc G-quadruplex DNA) (DNA, G4) TGAGGGTGGTGAGGGTGGGGAAGG; experiment: UV melting at 295 nm; conditions: 100 mM KCl, 10 mM potassium phosphate; pH 7.0; D/N = 2.0; Tm 70.0 to 80.0 °C
[4] = system: c-kit21up (c-kit G-quadruplex DNA) (DNA, G4) CGGGCGGGCGCGAGGGAGGGG; experiment: ligand fluorescence titration; conditions: 100 mM KCl, 10 mM potassium phosphate; pH 7.0, 25 °C
[5] = system: Tel7, d-(T2AG3T)4 (DNA, G4) TTAGGGT; experiment: ligand fluorescence titration; conditions: 70 mM Na+; 25 °C
[6] = system: Pu24T (c-myc G-quadruplex DNA) (DNA, G4) TGAGGGTGGTGAGGGTGGGGAAGG; experiment: NMR solution structure (NOESY, restrained MD); conditions: 298 K; D/N = 2.0; stacks at 5' and 3' G-tetrads

Compound | K1 [1] | Kd1 [2] [µM] | ΔTm [3] [°C] | Kd1 [4] [µM] | Kd1 [5] [µM] | binding [6]
COc1ccc([C@@H]2CC(=O)c3c(O)cc(O[C@@H]4O[C@H](CO[C@@H]5O[C@@H](C)[C@H](O)[C@@H](O)[C@H]5O)[C@@H](O)[C@H](O)[C@H]4O)cc3O2)cc1O | 7.35×10^5 ± 1.06 M^-1 | 1 |  |  |  | 
C[C@@H]1O[C@@H](OC[C@H]2O[C@@H](Oc3c(-c4ccc(O)c(O)c4)oc4cc(O)cc(O)c4c3=O)[C@H](O)[C@@H](O)[C@@H]2O)[C@H](O)[C@H](O)[C@H]1O | 7.23 × 10^5 ± 8.60 M-1 | 17.1 |  |  |  | 
O=c1c(-c2ccc(O)cc2)coc2c([C@@H]3O[C@H](CO)[C@@H](O)[C@H](O)[C@H]3O)c(O)ccc12 | 1.10×10^4 ± 7.75 M^-1 | 88.8 |  |  |  | 
O=c1c(-c2ccc(O)cc2)coc2cc(O)ccc12 | 3.34×10^5 ± 1.50 M^-1 | 47 |  |  |  | 
O=c1c(O)c(-c2cc(O)c(O)c(O)c2)oc2cc(O)cc(O)c12 | 1.65×10^5 ± 0 M^-1 | 1.4 |  |  |  | 
O=c1c(O)c(-c2ccc(O)c(O)c2)oc2cc(O)cc(O)c12 | 1.57 × 10^7 ± 2.14 M-1 |  | 10 | 1.12 | 2.13 | yes
O=c1c(O)c(-c2ccc(O)cc2)oc2cc(O)cc(O)c12 |  | 1.3 |  |  |  | 
O=c1cc(-c2ccc(O)c(O)c2)oc2cc(O)cc(O)c12 |  | 1.5 |  |  |  | 
